Measured values from ChEMBL document CHEMBL1149999, “Synthesis and pharmacological activity of a macrocyclic benzamide” (Bioorg Med Chem Lett, 1995).

Tests used:
Format in all cases: tissue-based
[1] = molecular target: 5-hydroxytryptamine receptor 4 (Rattus norvegicus, UniProt Q62758); experiment: Binding affinity against 5-hydroxytryptamine 4 receptor using [3H]GR-113808 as radioligand in rat striatum
[2] = molecular target: T1, Serotonin 3 (5-HT3) receptor (Rattus norvegicus, UniProt P35563+Q9JJ16); experiment: Binding affinity against 5-hydroxytryptamine 3 receptor using [3H]BRL-43694 as radioligand in rat posterior cortex
T1 sequence (P35563 whole entry): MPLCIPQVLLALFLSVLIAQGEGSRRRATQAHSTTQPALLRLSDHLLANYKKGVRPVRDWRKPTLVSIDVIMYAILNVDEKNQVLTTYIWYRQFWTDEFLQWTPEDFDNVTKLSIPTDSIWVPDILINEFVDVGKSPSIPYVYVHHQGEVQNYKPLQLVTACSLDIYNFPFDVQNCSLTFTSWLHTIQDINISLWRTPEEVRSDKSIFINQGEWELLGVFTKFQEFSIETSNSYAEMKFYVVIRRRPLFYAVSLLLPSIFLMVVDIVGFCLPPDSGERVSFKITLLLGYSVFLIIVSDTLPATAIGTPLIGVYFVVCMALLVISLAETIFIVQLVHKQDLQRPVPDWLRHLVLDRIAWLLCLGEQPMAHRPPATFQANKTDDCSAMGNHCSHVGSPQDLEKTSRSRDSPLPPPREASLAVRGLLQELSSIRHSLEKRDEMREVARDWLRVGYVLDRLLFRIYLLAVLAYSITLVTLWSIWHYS
T1 sequence (Q9JJ16 whole entry): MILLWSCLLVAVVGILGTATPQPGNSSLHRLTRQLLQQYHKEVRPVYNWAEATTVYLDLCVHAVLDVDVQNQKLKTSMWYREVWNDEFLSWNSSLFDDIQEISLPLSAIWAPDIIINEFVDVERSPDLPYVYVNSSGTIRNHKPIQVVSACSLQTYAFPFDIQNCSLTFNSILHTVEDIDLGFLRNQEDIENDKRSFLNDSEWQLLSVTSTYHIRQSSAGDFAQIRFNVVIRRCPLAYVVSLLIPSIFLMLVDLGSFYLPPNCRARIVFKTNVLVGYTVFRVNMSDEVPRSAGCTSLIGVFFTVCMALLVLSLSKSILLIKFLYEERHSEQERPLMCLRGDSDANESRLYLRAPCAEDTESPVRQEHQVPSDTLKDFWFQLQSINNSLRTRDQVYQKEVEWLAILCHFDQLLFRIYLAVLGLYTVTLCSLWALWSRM

[3] = molecular target: D(2) dopamine receptor (Rattus norvegicus, UniProt P61169); experiment: Binding affinity against Dopamine receptor D2 using [3H]spiperone as radioligand in rat striatum
Chain of D(2) dopamine receptor (P61169 whole entry): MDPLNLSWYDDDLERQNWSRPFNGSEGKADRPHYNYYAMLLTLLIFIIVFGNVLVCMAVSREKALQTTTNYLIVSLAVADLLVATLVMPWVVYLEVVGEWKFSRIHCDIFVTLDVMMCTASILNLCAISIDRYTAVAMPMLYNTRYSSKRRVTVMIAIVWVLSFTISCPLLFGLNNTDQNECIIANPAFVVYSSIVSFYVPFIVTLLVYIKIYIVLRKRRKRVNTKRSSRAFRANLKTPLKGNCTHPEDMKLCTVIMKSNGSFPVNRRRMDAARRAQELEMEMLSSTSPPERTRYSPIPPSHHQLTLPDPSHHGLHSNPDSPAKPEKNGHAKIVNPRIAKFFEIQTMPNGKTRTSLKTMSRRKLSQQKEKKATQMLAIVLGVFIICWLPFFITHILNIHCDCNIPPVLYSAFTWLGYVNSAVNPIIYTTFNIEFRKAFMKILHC

Chain of 5-hydroxytryptamine receptor 4 (Q62758 whole entry): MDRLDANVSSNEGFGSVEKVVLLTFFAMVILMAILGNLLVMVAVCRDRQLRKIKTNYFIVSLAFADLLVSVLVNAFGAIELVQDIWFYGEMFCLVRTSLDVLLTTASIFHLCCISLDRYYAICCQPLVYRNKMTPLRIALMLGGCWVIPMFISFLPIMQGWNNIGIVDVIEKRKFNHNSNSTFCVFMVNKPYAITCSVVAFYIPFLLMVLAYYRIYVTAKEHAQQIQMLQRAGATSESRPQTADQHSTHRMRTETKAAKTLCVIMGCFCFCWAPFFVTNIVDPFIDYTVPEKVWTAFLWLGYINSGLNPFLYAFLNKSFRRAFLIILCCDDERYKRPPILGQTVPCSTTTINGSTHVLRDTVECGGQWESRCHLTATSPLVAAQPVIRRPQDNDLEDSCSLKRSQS

SMILES | Ki [1] | Ki [2] | Ki [3]
Nc1cc2c(cc1Cl)C(=O)NC1CCN(CCOCCO2)CC1 | 29.7 nM | 53.2 nM | > 1000 nM
COc1cc(N)c(Cl)cc1C(=O)NC1CC2CCC(C1)N2Cc1ccccc1 (centres undefined) | 233 nM | > 1000 nM | 0.28 nM
COc1cc(N)c(Cl)cc1C(=O)NC1CCN(C)CC1 | 832 nM | 267 nM | > 1000 nM
COc1cc(N)c(Cl)cc1C(=O)N[C@@H]1CN2CCC1CC2 | 383 nM |  | > 1000 nM
COc1cc(N)c(Cl)cc1C(=O)NC1CC2CCC(C1)N2C (stereo in doubt) | 48 nM | 0.8 nM | > 1000 nM
COc1cc(N)c(Cl)cc1C(=O)NC1CC2CCC(C1)N2C (stereo in doubt; 5) | > 1000 nM | 41.8 nM | > 1000 nM
COc1cc(N)c(Cl)cc1C(=O)NC1CCN(Cc2ccccc2)CC1 [CLEBOPRIDE] | 104 nM | > 1000 nM | 
